Like-named read-outs stand apart in the source and are kept apart here.
Assays:
[1] = tested on: HepG2 liver cancer cells; assay: MTT cytotoxicity assay against HepG2 cells; assay type: cell-based; conditions: for IC50 / viability at 100 µM: Homo sapiens; for viability at 100 µM: read-out: cell viability at the highest concentration
Procedure: (§1) HepG2 liver cancer cells and THLE2 normal liver cells were bought from the National Research Institute in Egypt and cultured in “RPMI-1640” media containing L-Glutamine (Lonza Verviers SPRL, Belgium, cat#12-604F). Fetal bovine serum (Sigma-Aldrich, MO, USA) and penicillin–streptomycin at a concentration of 10% and 1%, respectively, were added to both cell lines (Lonza, Belgium). All cells were incubated following routine tissue culture work. Cells were treated with the compounds at (0.01, 0.1, 1, 10, and 100 µM) concentrations. Cell viability was assessed after 48 h using MTT solution (Promega, USA). Finally, Absorbance was subsequently measured (at 570 nm) using ELISA microplate reader (BIO-RAD, model iMark, Japan). The percentage of cell viability was calculated, and IC50 values were recorded using the GraphPad prism 7, as previously reported in the literature.

[2] = tested on: THLE2 normal liver cells; assay: MTT cytotoxicity assay against THLE2 cells; assay type: cell-based; conditions: for IC50: Homo sapiens, THLE-2, MTT assay, 48 h, n = 3, read-out: IC50 ± SD THLE2
Procedure: as §1

[3] = target: T1, HER2 kinase (Homo sapiens, UniProt P04626); assay: HER2 kinase inhibitory assay (BPS Bioscience kit); assay type: biochemical; conditions: average of three replicates, five concentrations
T1 construct: purchased BPS Bioscience 40721
T1 sequence (P04626 23-1255): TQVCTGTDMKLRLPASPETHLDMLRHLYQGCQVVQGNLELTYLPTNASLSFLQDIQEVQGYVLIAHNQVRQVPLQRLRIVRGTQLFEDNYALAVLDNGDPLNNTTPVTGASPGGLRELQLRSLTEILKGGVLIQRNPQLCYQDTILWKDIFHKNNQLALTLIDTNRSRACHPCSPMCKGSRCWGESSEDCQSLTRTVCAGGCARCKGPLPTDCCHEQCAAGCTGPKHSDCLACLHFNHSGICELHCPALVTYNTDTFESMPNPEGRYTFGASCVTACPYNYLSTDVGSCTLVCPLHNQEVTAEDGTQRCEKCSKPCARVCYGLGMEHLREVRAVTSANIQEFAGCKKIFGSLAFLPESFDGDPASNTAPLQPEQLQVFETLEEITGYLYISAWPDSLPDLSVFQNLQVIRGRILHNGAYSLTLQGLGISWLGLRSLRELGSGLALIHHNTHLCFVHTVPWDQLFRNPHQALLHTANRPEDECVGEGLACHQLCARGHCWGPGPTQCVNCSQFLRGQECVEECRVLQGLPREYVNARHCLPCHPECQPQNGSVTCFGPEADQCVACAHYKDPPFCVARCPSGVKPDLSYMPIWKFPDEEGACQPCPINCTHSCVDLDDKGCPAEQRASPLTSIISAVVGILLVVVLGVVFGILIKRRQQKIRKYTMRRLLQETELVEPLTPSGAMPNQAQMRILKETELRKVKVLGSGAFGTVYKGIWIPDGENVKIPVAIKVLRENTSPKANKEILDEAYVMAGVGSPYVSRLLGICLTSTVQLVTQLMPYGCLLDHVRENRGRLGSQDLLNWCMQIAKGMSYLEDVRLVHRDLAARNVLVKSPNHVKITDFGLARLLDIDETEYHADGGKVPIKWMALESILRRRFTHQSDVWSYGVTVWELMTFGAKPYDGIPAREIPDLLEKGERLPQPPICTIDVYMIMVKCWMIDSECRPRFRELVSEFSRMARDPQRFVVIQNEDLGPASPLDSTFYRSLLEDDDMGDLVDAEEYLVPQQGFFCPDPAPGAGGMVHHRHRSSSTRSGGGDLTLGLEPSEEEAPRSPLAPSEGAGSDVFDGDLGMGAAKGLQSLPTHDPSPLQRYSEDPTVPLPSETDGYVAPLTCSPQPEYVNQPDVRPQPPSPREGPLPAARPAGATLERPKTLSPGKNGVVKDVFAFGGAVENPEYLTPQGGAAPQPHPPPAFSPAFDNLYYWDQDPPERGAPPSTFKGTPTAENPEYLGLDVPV
Procedure: (§2) The autophosphorylation percentage inhibition of compounds was calculated by: 100-[Acontrol/Atreated-Control)] .

[4] = target: T2, EGFR kinase (Homo sapiens, UniProt P00533); assay: EGFR kinase inhibitory assay (BPS Bioscience kit); assay type: biochemical; conditions: average of three replicates, five concentrations
T2 construct: purchased BPS Bioscience 40321
T2 sequence (P00533 25-1210): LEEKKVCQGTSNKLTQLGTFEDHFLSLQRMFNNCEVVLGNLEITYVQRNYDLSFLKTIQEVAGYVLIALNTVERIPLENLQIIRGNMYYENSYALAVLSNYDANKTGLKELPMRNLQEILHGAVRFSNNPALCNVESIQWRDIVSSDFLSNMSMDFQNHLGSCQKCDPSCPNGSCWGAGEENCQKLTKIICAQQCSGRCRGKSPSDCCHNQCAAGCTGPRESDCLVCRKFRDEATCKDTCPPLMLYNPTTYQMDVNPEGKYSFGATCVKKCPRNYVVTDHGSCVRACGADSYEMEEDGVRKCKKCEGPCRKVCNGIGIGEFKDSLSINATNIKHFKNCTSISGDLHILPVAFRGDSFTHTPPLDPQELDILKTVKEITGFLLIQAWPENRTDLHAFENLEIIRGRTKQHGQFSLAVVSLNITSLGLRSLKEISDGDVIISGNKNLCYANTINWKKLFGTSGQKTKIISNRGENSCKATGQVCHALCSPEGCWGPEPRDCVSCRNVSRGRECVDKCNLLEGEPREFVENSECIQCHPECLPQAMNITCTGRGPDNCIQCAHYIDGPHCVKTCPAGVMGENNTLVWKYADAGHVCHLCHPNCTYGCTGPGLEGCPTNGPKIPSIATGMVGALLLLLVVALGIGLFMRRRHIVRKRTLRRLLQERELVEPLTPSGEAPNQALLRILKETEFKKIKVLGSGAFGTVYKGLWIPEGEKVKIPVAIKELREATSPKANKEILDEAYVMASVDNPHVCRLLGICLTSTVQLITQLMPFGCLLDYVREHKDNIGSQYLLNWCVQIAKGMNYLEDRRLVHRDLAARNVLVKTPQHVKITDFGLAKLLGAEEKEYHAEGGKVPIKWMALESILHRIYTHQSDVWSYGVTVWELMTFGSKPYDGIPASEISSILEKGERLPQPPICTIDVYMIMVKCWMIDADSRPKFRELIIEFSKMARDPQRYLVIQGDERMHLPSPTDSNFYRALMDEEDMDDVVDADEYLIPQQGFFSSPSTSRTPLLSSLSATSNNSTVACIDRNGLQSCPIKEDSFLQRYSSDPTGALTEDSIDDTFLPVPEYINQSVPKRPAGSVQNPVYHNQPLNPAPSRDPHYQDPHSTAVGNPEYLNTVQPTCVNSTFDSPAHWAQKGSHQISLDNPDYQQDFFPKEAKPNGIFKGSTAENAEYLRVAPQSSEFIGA
Procedure: as §2

[5] = tested on: HepG2 cells; assay: Cell cycle analysis by DNA flow cytometry; assay type: cell-based; conditions: HepG2, treated at IC50, 48 h
[6] = tested on: HepG2 cells; assay: Annexin V/PI staining, flow cytometry; assay type: cell-based; conditions: HepG2, treated at IC50, 48 h
Procedure: Overnight, 6-well culture plates were stocked with HepG2 cells (3–5 × 10^5 cells/well). […] After that, the cells and the medium supernatants were separated and washed with ice-cold PBS. The next step was suspending the cells in 100 µL of annexin binding buffer solution "25 mM CaCl2, 1.4 M NaCl, and 0.1 M Hepes/NaOH, pH 7.4″ and incubation with “Annexin V-FITC solution (1:100) and propidium iodide (PI)” at a concentration equals 10 µg/mL in the dark for 30 min. After the cells were stained, they were gathered by Cytoflex FACS equipment. We used cytExpert to examine the data.

[7] = tested on: caspase-9; assay: RT-PCR gene expression of caspase-9; assay type: cell-based; conditions: HepG2, treated at IC50, 48 h, normalised to β-actin, control = 1
Procedure: (§3) Genes of P53, Bax, and Caspases-3,8,9 were screened as proapoptotic genes, while Bcl-2 was screened as antiapoptotic, therefore, we measured their gene expression to investigate the apoptotic process. […] After treatment, RT-PCR reaction was carried out following routine work. The Ct values were then used to determine the fold change in gene expression between samples after normalization to the β-actin reference gene.

[8] = tested on: P53; assay: RT-PCR gene expression of P53; assay type: cell-based; conditions: HepG2, treated at IC50, 48 h, normalised to β-actin, control = 1
Procedure: as §3

[9] = tested on: caspase-8; assay: RT-PCR gene expression of caspase-8; assay type: cell-based; conditions: HepG2, treated at IC50, 48 h, normalised to β-actin, control = 1
Procedure: as §3

[10] = tested on: Bax; assay: RT-PCR gene expression of Bax; assay type: cell-based; conditions: HepG2, treated at IC50, 48 h, normalised to β-actin, control = 1
Procedure: as §3

[11] = tested on: caspase-3; assay: RT-PCR gene expression of caspase-3; assay type: cell-based; conditions: HepG2, treated at IC50, 48 h, normalised to β-actin, control = 1
Procedure: as §3

[12] = tested on: Bcl-2; assay: RT-PCR gene expression of Bcl-2; assay type: cell-based; conditions: HepG2, treated at IC50, 48 h, normalised to β-actin, control = 1
Procedure: as §3

[13] = HepG2 cells, MTT assay, 48 h, n = 3, read-out: IC50 ± SD HepG2
[14] = HepG2, dose-response curve fit in Fig. 5
[15] = HepG2, dose-response curve fit in Fig. 5, read-out: IC50 (unit inferred)

Row | Compound | IC50 [1, 13] | IC50 [2] | melting point | other results
1 | O=C(c1ccc2ccccc2c1)c1cn(-c2ccccc2)nc1-c1csc(NN=Cc2ccc([N+](=O)[O-])cc2)n1 [Compound 8d, 2-(4-Nitrobenzylidenehydrazinyl)-4-(4-(2-naphthoyl)-1-phenyl-pyrazol-3-yl)thiazole] | 11.3 ± 0.34 µM | ≥ 50 µM | 231 to 233 °C | –
2 | CS(=O)(=O)CCNCc1ccc(-c2ccc3ncnc(Nc4ccc(OCc5cccc(F)c5)c(Cl)c4)c3c2)o1 [Lapatinib, reference compound] | 7.45 ± 0.32 µM | ≥ 50 µM | – | –
3 | O=C(c1ccc2ccccc2c1)c1cn(-c2ccccc2)nc1-c1csc(N/N=C\c2ccccc2OCCCOc2ccccc2/C=N\Nc2nc(-c3nn(-c4ccccc4)cc3C(=O)c3ccc4ccccc4c3)cs2)n1 [Compound 21b, 1,3-Bis(2-((2-(4-((2-naphthoyl)-1-phenyl-1H-pyrazol-3-yl)thiazol-2-yl)hydrazono)methyl)-phenoxy)propane] | 9.36 ± 0.47 µM | 49.4 ± 2.1 µM | 209 to 211 °C | –
4 | O=C(c1ccc2ccccc2c1)c1cn(-c2ccccc2)nc1-c1csc(N/N=C/c2ccc(OCCCOc3ccc(/C=N/Nc4nc(-c5nn(-c6ccccc6)cc5C(=O)c5ccc6ccccc6c5)cs4)cc3)cc2)n1 [Compound 18b, 1,3-Bis(4-((2-(4-((2-naphthoyl)-1-phenyl-1H-pyrazol-3-yl)thiazol-2-yl)hydrazono)methyl)-phenoxy)propane] | 3.57 ± 0.67 µM | ≥ 50 µM | 200 to 202 °C | IC50 [3]: 0.0163 µM; LogIC50 [1, 14]: 0.5536; IC50 [1, 15]: 3.58 µM; viability at 100 µM ([1]; HepG2 cells): 9%; cytotoxicity against THLE2 cells (in words) [2]: safe (non-cytotoxic); IC50 [4]: 0.00704 µM
5 | O=C(c1ccc2ccccc2c1)c1cn(-c2ccccc2)nc1-c1csc(N/N=C/c2ccc(OCCOc3ccc(/C=N/Nc4nc(-c5nn(-c6ccccc6)cc5C(=O)c5ccc6ccccc6c5)cs4)cc3)cc2)n1 [Compound 18a, 1,2-Bis(4-((2-(4-((2-naphthoyl)-1-phenyl-1H-pyrazol-3-yl)thiazol-2-yl)hydrazono)methyl)-phenoxy)ethane] | 8.34 ± 0.48 µM | 39.8 ± 1.59 µM | 187 to 189 °C | –
6 | O=C(c1ccc2ccccc2c1)c1cn(-c2ccccc2)nc1-c1csc(N/N=C/c2ccc(OCCCCOc3ccc(/C=N/Nc4nc(-c5nn(-c6ccccc6)cc5C(=O)c5ccc6ccccc6c5)cs4)cc3)cc2)n1 [Compound 18c, 1,4-Bis(4-((2-(4-((2-naphthoyl)-1-phenyl-1H-pyrazol-3-yl)thiazol-2-yl)hydrazono)methyl)-phenoxy)butane] | 0.97 ± 0.09 µM | ≥ 50 µM | – | cell cycle phase at which proliferation is arrested [5]: S-phase; cell population at S-phase ([5]; control 37.8%): 50.5%; IC50 [3]: 0.00985 µM; LogIC50 [1, 14]: -0.01146; enhancement in anti-cancer potency on doubling the pharmacophoric scaffold ([1]; HepG2 IC50 of 18c vs. 8c): about eightfold; IC50 [1, 15]: 0.974 µM; viability at 100 µM ([1]; HepG2 cells): 5%; cytotoxicity against THLE2 cells (in words) [2]: safe (non-cytotoxic); increase of death rate (apoptotic cell death) ([6]; vs. untreated control): 63.6 fold; late apoptosis ([6]; AV+/PI+): 26.07%; early apoptosis ([6]; AV+/PI-): 15.28%; total apoptosis ([6]; untreated control 0.65%): 41.35%; IC50 [4]: 0.00498 µM; caspase-9 gene expression fold change [7]: 7.6 fold; P53 gene expression fold change [8]: 8.6 fold; caspase-8 gene expression fold change [9]: 2.3 fold; Bax gene expression fold change [10]: 8.9 fold; caspase-3 gene expression fold change [11]: 9 fold; Bcl-2 gene expression fold change [12]: 0.34 fold
7 | O=C(c1ccc2ccccc2c1)c1cn(-c2ccccc2)nc1-c1csc(N/N=C\c2ccccc2OCCCCOc2ccccc2/C=N\Nc2nc(-c3nn(-c4ccccc4)cc3C(=O)c3ccc4ccccc4c3)cs2)n1 [Compound 21c, 1,4-Bis(2-((2-(4-((2-naphthoyl)-1-phenyl-1H-pyrazol-3-yl)thiazol-2-yl)hydrazono)methyl)-phenoxy)butane] | 4.12 ± 0.19 µM | 45.6 ± 1.87 µM | 230 to 232 °C | –
8 | CC(=NNc1nc(-c2nn(-c3ccccc3)cc2C(=O)c2ccc3ccccc3c2)cs1)c1cc2ccccc2oc1=O [Compound 14, 2-(2-(1-(Coumarin-3-yl)ethylidene)hydrazinyl)-4-(4-(2-naphthoyl)-1-phenylpyrazol-3-yl)-thiazole] | 4.36 ± 0.38 µM | 39.5 ± 1.74 µM | 239 to 241 °C | –
9 | COc1ccc(C=NNc2nc(-c3nn(-c4ccccc4)cc3C(=O)c3ccc4ccccc4c3)cs2)cc1 [Compound 8c, 2-(4-Methoxybenzylidenehydrazinyl)-4-(4-(2-naphthoyl)-1-phenyl-pyrazol-3-yl)thiazole] | 7.39 ± 0.29 µM | ≥ 50 µM | – | –
10 | O=C(c1ccc2ccccc2c1)c1cn(-c2ccccc2)nc1C(=O)CBr [Compound 6, 3-Bromoacetyl-4-(2-naphthoyl)-1-phenyl-1H-pyrazole] | 16.3 ± 0.29 µM | 34.5 ± 1.26 µM | – | –
11 | CC(=NNc1nc(-c2nn(-c3ccccc3)cc2C(=O)c2ccc3ccccc3c2)cs1)c1nc2ccccc2s1 [Compound 13, 2-(2-(1-(Benzothiazol-2-yl)ethylidene)hydrazinyl)-4-(4-(2-naphthoyl)-1-phenylpyrazol-3-yl)-thiazole] | 5.16 ± 0.29 µM | ≥ 50 µM | 143 to 145 °C | –
12 | O=C(c1ccc2ccccc2c1)c1cn(-c2ccccc2)nc1-c1csc(NN=Cc2ccccc2)n1 [Compound 8a, 2-(Benzylidenehydrazinyl)-4-(4-(2-naphthoyl)-1-phenyl-pyrazol-3-yl)thiazole] | 8.64 ± 0.29 µM | 46.2 ± 2.01 µM | 138 to 140 °C | –
13 | O=C(c1ccc2ccccc2c1)c1cn(-c2ccccc2)nc1-c1csc(N/N=C\c2ccccc2OCCOc2ccccc2/C=N\Nc2nc(-c3nn(-c4ccccc4)cc3C(=O)c3ccc4ccccc4c3)cs2)n1 [Compound 21a, 1,2-Bis(2-((2-(4-((2-naphthoyl)-1-phenyl-1H-pyrazol-3-yl)thiazol-2-yl)hydrazono)methyl)-phenoxy)ethane] | 3.26 ± 0.14 µM | ≥ 50 µM | 166 to 168 °C | IC50 [3]: 0.0142 µM; LogIC50 [1, 14]: 0.514; IC50 [1, 15]: 3.27 µM; viability at 100 µM ([1]; HepG2 cells): 13%; cytotoxicity against THLE2 cells (in words) [2]: safe (non-cytotoxic); IC50 [4]: 0.0058 µM
14 | CC(=NNc1nc(-c2nn(-c3ccccc3)cc2C(=O)c2ccc3ccccc3c2)cs1)c1cc2ccccc2o1 [Compound 12, 2-(2-(1-(Benzofuran-2-yl)ethylidene)hydrazinyl)-4-(4-(2-naphthoyl)-1-phenylpyrazol-3-yl)thiazole] | 5.48 ± 0.66 µM | ≥ 50 µM | 164 to 166 °C | –
15 | Cc1ccc(C=NNc2nc(-c3nn(-c4ccccc4)cc3C(=O)c3ccc4ccccc4c3)cs2)cc1 [Compound 8b, 2-(4-Methylbenzylidenehydrazinyl)-4-(4-(2-naphthoyl)-1-phenylpyrazol-3-yl)thiazole] | 8.16 ± 0.34 µM | 41.6 ± 1.86 µM | – | –

Reference: article PMC10251674, “Synthesis of novel mono- and bis-pyrazolylthiazole derivatives as anti-liver cancer agents through EGFR/HER2 target inhibition” (BMC Chemistry, 2023)
